From the supplement of paper PMC4380931

Legend:
Experiment in all cases: apoptotic fraction of cells (caspase-3 NucView488 positive); higher = more apoptosis
[1] = tested on: WM115
Procedure: (§1)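 BRAF V600E/D melanoma cell lines were seeded in 96-well plates, treated in 4 replicates with seven doses (3.16 nM to 3.16 uM) of RAF/MEK inhibitors for 24, 48 or 72 h, and stained with Hoechst 33342 (nuclei) and DEVD-NucView488 caspase-3 substrate. Plates were imaged on an Operetta. Relative viability is the cell count normalised to a DMSO-treated control; apoptosis fraction is the fraction of NucView488-positive nuclei.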

[2] = tested on: RVH421
Procedure: as §1

[3] = tested on: SKMEL28
Procedure: as §1

[4] = tested on: LOXIMVI
Procedure: as §1

[5] = tested on: K2
Procedure: as §1

[6] = tested on: WM1552C
Procedure: as §1

[7] = tested on: MZ7MEL
Procedure: as §1

CCCS(=O)(=O)Nc1ccc(F)c(C(=O)c2c[nH]c3ncc(-c4ccc(Cl)cc4)cc23)c1F [Vemurafenib]
apoptotic fraction of cells
Details	0.00316 µM	0.01 µM	0.0316 µM	0.1 µM	0.316 µM	1 µM	3.16 µM
[1], 24 h	0.0555	0.0451	0.0561	0.0385	0.0444	0.0572	0.0792
[1], 48 h	0.0621	0.0504	0.0424	0.0407	0.0303	0.045	0.116
[1], 72 h	0.0323	0.0325	0.0317	0.0278	0.0361	0.125	0.407
[2], 24 h	0.04937	0.0545	0.0463	0.0489	0.0609	0.0547	0.0664
[2], 48 h	0.0497	0.0508	0.0538	0.0604	0.0622	0.0737	0.0864
[2], 72 h	0.0342	0.0343	0.0341	0.0335	0.0444	0.0453	0.0682
[3], 48 h	0.0412	0.0316	0.0337	0.0359	0.0364	0.038	0.0538
[3], 72 h	0.0393	0.0398	0.0297	0.0272	0.0276	0.0399	0.147
[4], 24 h	0.0511	0.0524	0.0364	0.0578	0.0383	0.0551	0.0557
[4], 48 h	0.103	0.0517	0.0505	0.0455	0.0414	0.0496	0.0897
[4], 72 h	0.191	0.153	0.0537	0.0438	0.0484	0.074	0.129
[5], 24 h	0.00416	0.00233	0.00265	0.00174	0.00473	0.0444	0.183
[5], 48 h	0.00306	0.00257	0.00173	0.00229	0.0116	0.0823	0.237
[6], 24 h	0.0617	0.0655	0.0602	0.0665	0.0682	0.0745	0.0696
[6], 48 h	0.078	0.0701	0.0688	0.0684	0.063	0.0641	0.0951
[6], 72 h	0.088	0.0756	0.0733	0.0668	0.0671	0.0874	0.164
[7], 24 h	0.0137	0.0131	0.00722	0.00978	0.0118	0.0206	0.0379
[7], 48 h	0.0184	0.0167	0.0196	0.0148	0.0203	0.0385	0.0682
[7], 72 h	0.0218	0.0158	0.0159	0.0167	0.0378	0.103	0.193
